In brackets after ≈: the same amount, converted by molar mass.
Legend:
Echinochloa crus-galli [1] = test: Herbicidal activity against Echinochloa crus-galli (barnyard grass) assessed as root inhibition at 100 mg/l; assay type: functional
Echinochloa crus-galli [2] = test: Herbicidal activity against Echinochloa crus-galli (barnyard grass) assessed as stalk inhibition at 100 mg/l; assay type: functional
[3] = system: Brassica rapa subsp. oleifera; test: Herbicidal activity against Brassica rapa subsp. oleifera assessed as root inhibition at 100 mg/l; assay type: functional
Echinochloa crus-galli [4] = test: Herbicidal activity against Echinochloa crus-galli (barnyard grass) assessed as stalk inhibition; assay type: functional, organism-based
[5] = system: Brassica rapa subsp. oleifera; test: Herbicidal activity against Brassica rapa subsp. oleifera assessed as root inhibition; assay type: functional, organism-based

CCCCCCC1NC(=O)/C(=C(/C)O)C1=O (centres undefined)
inhibition at 100 µg/mL (Echinochloa crus-galli [1]): 47.8% | inhibition at 100 µg/mL (Echinochloa crus-galli [2]): 66.9% | inhibition at 100 µg/mL [3]: 43.1% | EC50 (Echinochloa crus-galli [4]): 72.7 µg/mL (≈ 323 µM)

COc1ccc(CC2NC(=O)/C(=C(/C)O)C2=O)cc1 (centres undefined)
inhibition at 100 µg/mL (Echinochloa crus-galli [1]): 32.8% | inhibition at 100 µg/mL (Echinochloa crus-galli [2]): 41.2% | inhibition at 100 µg/mL [3]: 62.9%

C/C(O)=C1/C(=O)NC(Cc2ccc(Cl)cc2Cl)C1=O (centres undefined)
inhibition at 100 µg/mL (Echinochloa crus-galli [1]): 31.6% | inhibition at 100 µg/mL (Echinochloa crus-galli [2]): 19.1% | inhibition at 100 µg/mL [3]: 59.3%

COc1ccc(C(=O)CC2NC(=O)/C(=C(/C)O)C2=O)cc1 (centres undefined)
inhibition at 100 µg/mL (Echinochloa crus-galli [1]): 61.5% | inhibition at 100 µg/mL (Echinochloa crus-galli [2]): 62.6% | inhibition at 100 µg/mL [3]: 45.9% | EC50 (Echinochloa crus-galli [4]): 94.4 µg/mL (≈ 326 µM)

C/C(O)=C1/C(=O)NC(CC(=O)c2ccccc2)C1=O (centres undefined)
inhibition at 100 µg/mL (Echinochloa crus-galli [1]): 47.9% | inhibition at 100 µg/mL (Echinochloa crus-galli [2]): 36.4% | inhibition at 100 µg/mL [3]: 66.9%

C/C(O)=C1/C(=O)NC(C/C=C/c2ccccc2)C1=O (centres undefined)
EC50 [5]: 39.2 µg/mL (≈ 152 µM) | inhibition at 100 µg/mL (Echinochloa crus-galli [1]): 54% | inhibition at 100 µg/mL (Echinochloa crus-galli [2]): 42.5% | inhibition at 100 µg/mL [3]: 90.4%

CCCCC1NC(=O)/C(=C(/C)O)C1=O (centres undefined)
inhibition at 100 µg/mL (Echinochloa crus-galli [1]): 38.5% | inhibition at 100 µg/mL (Echinochloa crus-galli [2]): 32.3% | inhibition at 100 µg/mL [3]: 46.3%

C/C(O)=C1/C(=O)NC(Cc2ccc(Cl)cc2)C1=O (centres undefined)
EC50 [5]: 25.5 µg/mL (≈ 96 µM) | inhibition at 100 µg/mL (Echinochloa crus-galli [1]): 49.6% | inhibition at 100 µg/mL (Echinochloa crus-galli [2]): 37.8% | inhibition at 100 µg/mL [3]: 89.7%

C/C(O)=C1/C(=O)NC(Cc2ccccc2Cl)C1=O (centres undefined)
inhibition at 100 µg/mL (Echinochloa crus-galli [1]): 37.3% | inhibition at 100 µg/mL (Echinochloa crus-galli [2]): 35.7% | inhibition at 100 µg/mL [3]: 41.8%

C/C(O)=C1/C(=O)NC(Cc2ccc([N+](=O)[O-])cc2)C1=O (centres undefined)
inhibition at 100 µg/mL (Echinochloa crus-galli [1]): 64.3% | inhibition at 100 µg/mL (Echinochloa crus-galli [2]): 41.6% | inhibition at 100 µg/mL [3]: 45.7%
